Reference: US10563263B2, “Genetic polymorphisms associated with statin response and cardiovascular diseases, methods of detection and uses thereof” (CELERA CORPORATION, priority 2010, dated 2020)

Test system: revascularization, unstable angina requiring hospitalization, MI, all causes of death, or stroke
Assay: PROVE IT-TIMI 22: SNP by treatment interaction (high-dose atorvastatin vs standard-dose pravastatin), logistic regression (synergy index), primary composite endpoint
Type: in vivo, human
Conditions: for OR: PROVEIT

## CC(C)c1c(C(=O)Nc2ccccc2)c(-c2ccccc2)c(-c2ccc(F)cc2)n1CC[C@@H](O)C[C@@H](O)CC(=O)O [Atorvastatin, atorvastatin]
Marker rs13129010, caseonly, model dom, End-point CHD, atorvastatin vs pravastatin
  OR: 1.39
Marker rs13150189, caseonly, model dom, End-point CVD, atorvastatin vs pravastatin
  OR: 1.36
Marker rs16934059, cohort, model dom, End-point CHD, atorvastatin vs pravastatin
  OR: 0.65
Marker rs17002013, cohort, model dom, End-point CVD, atorvastatin vs pravastatin
  OR: 1.38
Marker rs17688430, caseonly, model add, End-point CVD, atorvastatin vs pravastatin
  OR: 0.77
Marker rs17821383, caseonly, model rec, End-point CHD, atorvastatin vs pravastatin
  OR: 0.35
rs4773, caseonly, dom, CVD
  OR: 0.68
rs475420, caseonly, dom, CVD
  OR: 1.57
rs1045916, caseonly, add, CHD
  OR: 0.79
rs7067780, caseonly, dom, CVD
  OR: 1.41
rs9906737, caseonly, dom, CHD
  OR: 0.53
rs17644708, caseonly, rec, CVD
  OR: 0.34
rs742827, allele A, ADD, Imputed, atorvastatin vs pravastatin
  OR (SNP x treatment interaction): 1.396
rs879961, allele T, ADD, Imputed, atorvastatin vs pravastatin
  OR (SNP x treatment interaction): 1.178
rs906353, allele A, DOM, Imputed, atorvastatin vs pravastatin
  OR (SNP x treatment interaction): 1.22
rs915491, allele C, DOM, Imputed, atorvastatin vs pravastatin
  OR (SNP x treatment interaction): 1.329
rs915493, allele T, DOM, Imputed, atorvastatin vs pravastatin
  OR (SNP x treatment interaction): 1.329
rs915494, allele A, ADD, Imputed, atorvastatin vs pravastatin
  OR (SNP x treatment interaction): 1.399
rs915494, allele A, DOM, Imputed, atorvastatin vs pravastatin
  OR (SNP x treatment interaction): 1.486
rs917295, allele G, DOM, Imputed, atorvastatin vs pravastatin
  OR (SNP x treatment interaction): 0.5934
rs966583, allele A, ADD, Imputed, atorvastatin vs pravastatin
  OR (SNP x treatment interaction): 0.7596
rs966583, allele A, DOM, Imputed, atorvastatin vs pravastatin
  OR (SNP x treatment interaction): 0.6781
rs7180245, allele A, REC, Imputed, atorvastatin vs pravastatin
  OR (SNP x treatment interaction): 1.965
rs7283476, allele T, ADD, Imputed, atorvastatin vs pravastatin
  OR (SNP x treatment interaction): 0.413
rs7283476, allele T, DOM, Imputed, atorvastatin vs pravastatin
  OR (SNP x treatment interaction): 0.3545
rs7298255, allele A, ADD, Imputed, atorvastatin vs pravastatin
  OR (SNP x treatment interaction): 0.7433
rs7298255, allele A, DOM, Imputed, atorvastatin vs pravastatin
  OR (SNP x treatment interaction): 0.74
rs7392620, allele C, ADD, Imputed, atorvastatin vs pravastatin
  OR (SNP x treatment interaction): 0.6521
rs7446891, allele G, DOM, Imputed, atorvastatin vs pravastatin
  OR (SNP x treatment interaction): 0.5934
rs7448641, allele C, ADD, Imputed, atorvastatin vs pravastatin
  OR (SNP x treatment interaction): 0.9741
rs7448641, allele C, DOM, Imputed, atorvastatin vs pravastatin
  OR (SNP x treatment interaction): 1.136
rs7499402, allele A, ADD, Genotyped, atorvastatin vs pravastatin
  OR (SNP x treatment interaction): 2.08
rs7529851, allele A, ADD, Imputed, atorvastatin vs pravastatin
  OR (SNP x treatment interaction): 0.7324
rs7573951, allele G, ADD, Imputed, atorvastatin vs pravastatin
  OR (SNP x treatment interaction): 1.009
rs7599198, allele T, DOM, Imputed, atorvastatin vs pravastatin
  OR (SNP x treatment interaction): 0.9895
rs7607712, allele T, ADD, Imputed, atorvastatin vs pravastatin
  OR (SNP x treatment interaction): 1.357
rs7607712, allele T, DOM, Imputed, atorvastatin vs pravastatin
  OR (SNP x treatment interaction): 1.496
rs7621663, allele G, REC, Imputed, atorvastatin vs pravastatin
  OR (SNP x treatment interaction): 0.8874
rs7626584, allele G, ADD, Imputed, atorvastatin vs pravastatin
  OR (SNP x treatment interaction): 0.6617
rs7684899, allele C, ADD, Imputed, atorvastatin vs pravastatin
  OR (SNP x treatment interaction): 0.617
rs7684899, allele C, DOM, Imputed, atorvastatin vs pravastatin
  OR (SNP x treatment interaction): 0.5176
rs7701604, allele G, ADD, Imputed, atorvastatin vs pravastatin
  OR (SNP x treatment interaction): 0.9741
rs7701604, allele G, DOM, Imputed, atorvastatin vs pravastatin
  OR (SNP x treatment interaction): 1.136
rs7703676, allele C, ADD, Imputed, atorvastatin vs pravastatin
  OR (SNP x treatment interaction): 0.9741
rs7703676, allele C, DOM, Imputed, atorvastatin vs pravastatin
  OR (SNP x treatment interaction): 1.136
rs7708491, allele C, REC, Imputed, atorvastatin vs pravastatin
  OR (SNP x treatment interaction): 1.179
rs7711358, allele A, DOM, Imputed, atorvastatin vs pravastatin
  OR (SNP x treatment interaction): 0.593
rs7724761, allele T, REC, Imputed, atorvastatin vs pravastatin
  OR (SNP x treatment interaction): 1.207
rs7762993, allele A, ADD, Imputed, atorvastatin vs pravastatin
  OR (SNP x treatment interaction): 1.066
rs7762993, allele A, DOM, Imputed, atorvastatin vs pravastatin
  OR (SNP x treatment interaction): 1.079
rs7767265, allele G, ADD, Imputed, atorvastatin vs pravastatin
  OR (SNP x treatment interaction): 1.18
rs7768128, allele G, REC, Imputed, atorvastatin vs pravastatin
  OR (SNP x treatment interaction): 0.3066
rs7773151, allele C, DOM, Genotyped, atorvastatin vs pravastatin
  OR (SNP x treatment interaction): 1.038
rs7773210, allele A, DOM, Genotyped, atorvastatin vs pravastatin
  OR (SNP x treatment interaction): 1.038
rs7843510, allele G, DOM, Genotyped, atorvastatin vs pravastatin
  OR (SNP x treatment interaction): 0.9929
rs7939893, allele C, ADD, Imputed, atorvastatin vs pravastatin
  OR (SNP x treatment interaction): 0.6916
rs7939893, allele C, DOM, Imputed, atorvastatin vs pravastatin
  OR (SNP x treatment interaction): 0.506
rs7944513, allele T, REC, Imputed, atorvastatin vs pravastatin
  OR (SNP x treatment interaction): 1.787
rs7949720, allele G, ADD, Imputed, atorvastatin vs pravastatin
  OR (SNP x treatment interaction): 1.485
rs7949720, allele G, DOM, Imputed, atorvastatin vs pravastatin
  OR (SNP x treatment interaction): 1.52
rs7955901, allele C, ADD, Imputed, atorvastatin vs pravastatin
  OR (SNP x treatment interaction): 0.7285
rs7955901, allele C, DOM, Imputed, atorvastatin vs pravastatin
  OR (SNP x treatment interaction): 0.7139
rs7956274, allele T, ADD, Imputed, atorvastatin vs pravastatin
  OR (SNP x treatment interaction): 0.7156
rs7956274, allele T, DOM, Imputed, atorvastatin vs pravastatin
  OR (SNP x treatment interaction): 0.7031
rs7957932, allele G, ADD, Imputed, atorvastatin vs pravastatin
  OR (SNP x treatment interaction): 0.7234
rs7957932, allele G, DOM, Imputed, atorvastatin vs pravastatin
  OR (SNP x treatment interaction): 0.6888
rs7999518, allele A, REC, Imputed, atorvastatin vs pravastatin
  OR (SNP x treatment interaction): 0.4462
rs8026245, allele G, REC, Imputed, atorvastatin vs pravastatin
  OR (SNP x treatment interaction): 1.888
rs8060725, allele A, ADD, Genotyped, atorvastatin vs pravastatin
  OR (SNP x treatment interaction): 0.6772
rs8103016, allele A, ADD, Genotyped, atorvastatin vs pravastatin
  OR (SNP x treatment interaction): 1.223
rs8104182, allele G, ADD, Imputed, atorvastatin vs pravastatin
  OR (SNP x treatment interaction): 1.298
rs8104182, allele G, DOM, Imputed, atorvastatin vs pravastatin
  OR (SNP x treatment interaction): 1.4
rs8129461, allele G, ADD, Imputed, atorvastatin vs pravastatin
  OR (SNP x treatment interaction): 0.3726
rs8129461, allele G, DOM, Imputed, atorvastatin vs pravastatin
  OR (SNP x treatment interaction): 0.3187
rs8130021, allele G, ADD, Imputed, atorvastatin vs pravastatin
  OR (SNP x treatment interaction): 0.4152
rs8130021, allele G, DOM, Imputed, atorvastatin vs pravastatin
  OR (SNP x treatment interaction): 0.3565
rs9293464, allele T, REC, Imputed, atorvastatin vs pravastatin
  OR (SNP x treatment interaction): 1.207
rs9295154, allele G, DOM, Genotyped, atorvastatin vs pravastatin
  OR (SNP x treatment interaction): 1.463
rs9310221, allele A, DOM, Imputed, atorvastatin vs pravastatin
  OR (SNP x treatment interaction): 0.8966
rs9327555, allele T, DOM, Imputed, atorvastatin vs pravastatin
  OR (SNP x treatment interaction): 0.5934
rs9403367, allele C, DOM, Imputed, atorvastatin vs pravastatin
  OR (SNP x treatment interaction): 1.038
rs9419608, allele G, REC, Imputed, atorvastatin vs pravastatin
  OR (SNP x treatment interaction): 0.5885
rs9426437, allele T, DOM, Imputed, atorvastatin vs pravastatin
  OR (SNP x treatment interaction): 1.067
rs9454967, allele G, DOM, Imputed, atorvastatin vs pravastatin
  OR (SNP x treatment interaction): 0.9744
rs9635511, allele T, DOM, Imputed, atorvastatin vs pravastatin
  OR (SNP x treatment interaction): 0.8692
rs9812206, allele G, ADD, Imputed, atorvastatin vs pravastatin
  OR (SNP x treatment interaction): 1.042
rs9812206, allele G, DOM, Imputed, atorvastatin vs pravastatin
  OR (SNP x treatment interaction): 1.042
rs9813552, allele G, ADD, Imputed, atorvastatin vs pravastatin
  OR (SNP x treatment interaction): 1.042
rs9813552, allele G, DOM, Imputed, atorvastatin vs pravastatin
  OR (SNP x treatment interaction): 1.077
rs9815037, allele T, DOM, Imputed, atorvastatin vs pravastatin
  OR (SNP x treatment interaction): 1.083
rs9825349, allele A, DOM, Imputed, atorvastatin vs pravastatin
  OR (SNP x treatment interaction): 1.083
rs9840756, allele A, ADD, Imputed, atorvastatin vs pravastatin
  OR (SNP x treatment interaction): 0.9995
rs9840756, allele A, DOM, Imputed, atorvastatin vs pravastatin
  OR (SNP x treatment interaction): 1.031
